# Results as given in US12465626B2, “Traditional Chinese medicine composition with improving cognition effect, preparation method thereof and traditional Chinese medicine preparation” (Chenland Nutritionals, Inc., priority 2019, dated 2025).
# Experiments:
# Format in all cases: in vivo
# [1] = tested on: mice; test: Novel object recognition test of mice
# Procedure: Adaptation period: on the first day, the mice were placed in the test room for 1 hour of environmental adaptation and familiarity, and then placed in the open field box for 20 minutes (there was no object in the box), so as to eliminate the impact of the open field box on the tested mice. After the experiment of each mouse, the open field box was cleaned with 75% ethanol.
# Familiarization period: on the second day (24 hours after the adaptation period), the mice were placed in the test room for 1 hour of environmental adaptation and familiarization, then two yellow cylindrical bottles of the same size and texture were placed at the left and right ends of the same side of the open field box as familiar objects, and then the mouse was put into the box with its back towards the objects. The mouse's exploration of the objects within 5 min was recorded (timing standard: the exploration time within 2 cm of the mouse's nose or mouth from the object, and its lying on the objects or just walking around the objects was not included). […]
# Test period: 2 h after the familiarization period, replace a yellow cylindrical bottle in the open field box was replaced with a green conical bottle of the same size as a strange object, and then the mouse was put into the box with its back towards the objects. […] The recognition index (RI) was calculated: RI=Tn/(Tn+Tf). […]
# [2] = tested on: mice; test: Step-down test of mice (scopolamine hydrobromide)
# Procedure: (§1) Statistical methods: the data were analyzed by GraphPad Prism 7.01 software (GraphPad Software, Inc., San Diego, California, USA). Before the parameter test of all group tests, the data were tested by normality test (Kolmogorov-Smirnov test) and variance homogeneity test (Levene test). Except for the escape latency in water maze, all test parameters were compared between groups by non paired T-test (single tail), and the test level was set as p<0.05. The escape latency in water maze was compared between two groups by two-way analysis of variance. The post test was conducted by Sidak's multiple comparisons test, and the test level was set as p<0.05.
# Test method: the grouping, sample preparation and modeling of mouse step-down test were the same as above. At the beginning of the test, the step-down training was carried out, where the adaptation was carried out for 3 min and then the power on training was carried out for 300 s. The test was conducted after 24 hours. The drug was administered 1 hour before the test, and scopolamine hydrobromide and normal saline were injected intraperitoneally 15-20 minutes before the test. Then the mouse was put on the platform and the latency of jumping off the platform for the first time and the number of errors (getting off the platform) within 300 s were recorded.
# [3] = tested on: mice; test: Morris water maze test, directional navigation experiment; settings: max 60 s
# Procedure: as §1
# (§2) Implementation method: the test procedure included two parts: directional navigation and space exploration. A total of 5 consecutive days were tested. The first part was the directional navigation experiment, which was tested on mice for 4 days, and the second part was the space exploration experiment, which was tested for 1 day. The melanin edible toner was […] to hide the platform, and it was kept in sharp contrast with the color of mice during camera shooting for easy tracking. The platform was located 0.8 cm below the water surface and the water depth was 21 cm. It was located in the NW quadrant. The water temperature in the water maze was maintained at a constant temperature of 22-24° C. with a heating rod.
# Directional navigation experiment: each mouse was trained 4 times a day, with an interval of 15-20 min. During the test, the water entry point was selected in a semi random way each time. The experimenter held the mouse by hand, made it face the pool wall, and gently put it into the water. In each training, if the mouse could find the platform within 60 s, and the time spent on the platform was more than 2 S, it was regarded as the sign of successful platform search. The time spent by the mice from entering the water to successful platform search was recorded as the latency. […] After the mice boarded the platform, the mice were kept on the platform for 10 s, so that they could carry out spatial learning and memory according to the reference objects of the four quadrants, and the tension of the mice were reduced. The average value of daily latency was calculated to evaluate the acquisition ability of animals' spatial memory.
# [4] = tested on: mice; test: Morris water maze test, space exploration experiment; settings: exploration period
# Procedure: as §1, §2
# Space exploration experiment: the platform was removed and each mouse was tested once for 60 s. The SE quadrant was selected and the mouse was gently put into the water facing the edge of the pool wall. The spatial memory ability of the animal was evaluated by the number of times the animal crossed the original platform position within 60 s, the run ratio and time ratio of the original platform quadrant (i.e. the ratio of the run and time of the animal's original platform quadrant to the total run and time).
# [5] = after intragastric administration
smiles,measurement,setting,value
"C/C=C1\[C@H]2C=C(C)C[C@]1(N)c1ccc(=O)[nH]c1C2 [Positive drug, huperzine-A]",Recognition index (x[…]SE),"[1]; RI=Tn/(Tn+Tf), intragastric, dose (crude drug) 1.002 g/kg (Embodiment 1, Comparative examples 1, 2), 1.200 g/kg (Comparative example 3), 0.67 tablets/kg (positive drug), model group 0.4180, control 0.5715",0.5341 ± 0.0428
same,Recognition index compared with the model group,[1]; [5],increased significantly
same,Step-down latency compared with the model group,[2]; [5],significantly longer
same,Step-down number of errors compared with the model group,[2]; [5],significantly lower
same,Number of errors (x[…]SE),"[2]; errors within 300 s, doses as Table 3, model group 2.714, control 1.375",1.833 ± 0.3445
same,Latency/s,"[2]; latency of jumping off the platform, max 300 s, drug 1 hour before test, doses as Table 2, model group 42.01, control 100.3",94.12 ± 29.48 s
same,Escape latency First day (s) (x[…]SE),"[3]; first day, doses as Table 4, model group 53.2",52.7 ± 2.29 s
same,Escape latency Fourth day (s) (x[…]SE),"[3]; fourth day, model group 47.7",43.5 ± 2.83 s
same,Escape latency Second day (s) (x[…]SE),"[3]; second day, model group 44.2",44.5 ± 2.80 s
same,Escape latency Third day (s) (x[…]SE),"[3]; third day, model group 42.4",43.6 ± 2.91 s
same,Stay time in target quadrant/s (x[…]SE),"[4]; 60 s, model group 14.15, control 17.30",15.04 ± 0.9555 s
same,Number of crossing platform (x[…]SE),"[4]; within 60 s, model group 1.308, control 3.125",2.786 ± 0.4591
same,Escape latency compared with the model group,[4]; [5],significantly shorter
same,Number of crossing the platform compared with the model group,[4]; [5],significantly higher
same,Escape latency/s (x[…]SE),"[4]; doses as Table 5, model group 39.27, control 20.05",22.91 ± 3.922 s
same,Run distance of target quadrant/mm (x[…]SE),"[4]; model group 2373, control 2821",2867 ± 207.6 mm
